As usually defined, the EC50 is the midpoint of the concentration-response curve. The term solubility (thermodynamic) denotes the concentration in solution at equilibrium with solid. For orientation: CC50 means the concentration that lowers cell viability or growth by half.

In brackets after ≈: the same amount, converted by molar mass. Where only a bound is given, the exact number is not on record here.

For data set [1], the system named is HBV. Briefly: Anti-HBV activity in vitro in HepG2.2.15 cells (extracellular HBV DNA by qPCR). The conditions noted are these: Hepatitis B virus; HepG2.2.15 cells; in-house data; read-out: EC50. Type of data set: cell-based, Hepatitis B virus. In outline:
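Supernatant HBV DNA was measured by qPCR after viral DNA extraction. Samples came from 5-day cultures of HepG2.2.15 cells, an HBV-genome-transfected HepG2 line, exposed to half-log compound dilutions in medium containing 0.5% DMSO.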
In general terms: Real-time PCR tracks product formation cycle by cycle.

Data set [2] is described as follows: Lyophilisation solubility assay (Lysa). The class given is physicochemical. The conditions noted are these: phosphate buffer, pH 6.5, aqueous buffer, thermodynamic from solid. In outline:
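Solubility in μg/mL is read by UV or HPLC-UV on filtrate, neat and diluted 1/10. Before filtration, the residue from evaporated 10 mM DMSO stock was taken up in pH 6.5 0.05 M phosphate buffer, then stirred 1 h, shaken 2 h and stood overnight, in duplicate.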

Data set [3] in a line: Metabolic stability study in human microsome. The class given is in vitro ADME. In outline: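 Depletion of 1 μM compound followed by LC-MS/MS over 0–30 min (0, 3, 6, 9, 15, 30 min) after methanol quench. Incubations at 37 °C, pH 7.4 phosphate buffer, 0.5 mg/mL microsomal protein, with NADPH (1 mM) or a regenerating system as cofactor; controls lacked cofactor.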
Data set [4] relates to HBV. Briefly: Selectivity index (CC50 value/EC50 value). The class given is cell-based, Hepatitis B virus. In outline:
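Ratio of CC50 to EC50, measuring antiviral activity against HBV relative to cytotoxicity in vitro; higher values indicate greater separation between viral inhibition and cell death.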

Data set [5] is described as follows: Cytotoxicity (CC50) in HepDE19 cells, CCK-8 cell viability. Type of data set: cell-based. To be noted: human, HepDE19 cells; read-out: CC50. In outline: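 HBV-transfected HepG2-derived HepDE19 cells grown in DMEM-F12 with 10% FBS and G418. Viability read five days after treatment by CCK-8, 2 h at 37 °C, absorbance at 450 and 630 nm.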

As for `CCOC(=O)C1=C(CN2CCOC[C@H]2C(=O)O)NC(c2nccs2)=N[C@H]1c1ccc(Br)cc1` [Example 123, (3S)-4-[[(4S)-4-(4-Bromophenyl)-5-ethoxycarbonyl-2-(1,3-thiazol-2-yl)-1,4-dihydropyrimidin-6-yl]methyl]morpholine-3-carboxylic acid], in the data set on HBV [1], the EC50 was determined as 2.8 nM. This compound also showed a thermodynamic solubility in data set [2] greater than 666 µg/mL. Moreover, the “Human Hepatic Clearance” value in data set [3] is 3.14 mL/min/kg. Also, in the data set on HBV [4], the “Selectivity index (CC50/EC50)” value is 19900. Besides, the CC50 at 5 days in data set [5] is 56000 nM.

Take `CCOC(=O)C1=C(CN2CC(F)(F)C[C@H]2C(=O)O)NC(c2nccn2C)=N[C@H]1c1ccc(F)cc1Cl` [Example 36, (R)-6-((S)-2-Carboxy-4,4-difluoro-pyrrolidin-1-ylmethyl)-4-(2-chloro-4-fluoro-phenyl)-2-(1-methyl-1H-imidazol-2-yl)-1,4-dihydro-pyrimidine-5-carboxylic acid ethyl ester]: the EC50 in the data set with HBV [1] came to 18 nM. In addition, in data set [2], the solubility (thermodynamic) is greater than 637 µg/mL. Also, in data set [3], the “Human Hepatic Clearance” value was found to be 6.22 mL/min/kg. In addition, the “Selectivity index (CC50/EC50)” value in the data set on HBV [4] is 1251. In addition, in data set [5], the CC50 at 5 days came to 23000 nM.

On to `CCOC(=O)C1=C(CN2CCOC[C@H]2C(=O)O)NC(c2nccs2)=N[C@H]1c1ccc(Cl)c(Cl)c1` [Example 46, (S)-4-[(S)-6-(3,4-Dichloro-phenyl)-5-ethoxycarbonyl-2-thiazol-2-yl-3,6-dihydro-pyrimidin-4-ylmethyl]-morpholine-3-carboxylic acid], for which the EC50 in the data set on HBV [1] is 16 nM. Further, the solubility (thermodynamic) in data set [2] was greater than 655 µg/mL. Further, the “Human Hepatic Clearance” value in data set [3] is given as 0 mL/min/kg. Further, the “Selectivity index (CC50/EC50)” value in the data set on HBV [4] stood at 2212. Further, the CC50 at 5 days in data set [5] is 36000 nM.

With `COC(=O)C1=C(CN2CC(F)(F)C[C@H]2C(=O)O)NC(c2cc(F)cs2)=N[C@H]1c1ccc(F)cc1Cl` [Example 12, (R)-6-((S)-2-Carboxy-4,4-difluoro-pyrrolidin-1-ylmethyl)-4-(2-chloro-4-fluoro-phenyl)-2-(4-fluoro-thiophen-2-yl)-1,4-dihydro-pyrimidine-5-carboxylic acid methyl ester], the EC50 in the data set on HBV [1] is 9.3 nM. In addition, the solubility (thermodynamic) in data set [2] amounted to 488 µg/mL (≈ 917 µM). Besides, the “Human Hepatic Clearance” value in data set [3] is 5.55 mL/min/kg. In the data set on HBV [4], the “Selectivity index (CC50/EC50)” value is listed as greater than 10753. Further, the CC50 at 5 days in data set [5] is greater than 100000 nM.

Take `COC(=O)C1=C(CN2CCO[C@H](C)[C@H]2C(=O)O)NC(c2nccs2)=N[C@H]1c1ccc(F)c(F)c1F` [Example 114, (2R,3S)-4-[(R)-5-Methoxycarbonyl-2-thiazol-2-yl-6-(2,3,4-trifluoro-phenyl)-3,6-dihydro-pyrimidin-4-ylmethyl]-2-methyl-morpholine-3-carboxylic acid]: the EC50 in the data set with HBV [1] stood at 9.3 nM. For the same compound, the solubility (thermodynamic) in data set [2] was greater than 617 µg/mL. In addition, the “Human Hepatic Clearance” value in data set [3] came to 0 mL/min/kg. Also, the “Selectivity index (CC50/EC50)” value with HBV [4] is given as greater than 10753. For the same compound, in data set [5], the CC50 at 5 days was greater than 100000 nM.

Take `CCOC(=O)C1=C(CN2CC(F)(F)C[C@H]2C(=O)O)NC(c2nccs2)=N[C@H]1c1cccc(F)c1Cl` [Example 64, (R)-6-((S)-2-Carboxy-4,4-difluoro-pyrrolidin-1-ylmethyl)-4-(2-chloro-3-fluoro-phenyl)-2-thiazol-2-yl-1,4-dihydro-pyrimidine-5-carboxylic acid ethyl ester]: the EC50 in the data set on HBV [1] was 3 nM. For the same compound, the thermodynamic solubility in data set [2] is greater than 620 µg/mL. Besides, the “Human Hepatic Clearance” value in data set [3] came out at 0 mL/min/kg. The “Selectivity index (CC50/EC50)” value with HBV [4] is reported as 15667. Besides, the CC50 at 5 days in data set [5] worked out at 47000 nM.

For `COC(=O)C1=C(CN2CCO[C@H](C)[C@H]2C(=O)O)NC(c2nccs2)=N[C@H]1c1cccc(F)c1Cl` [Example 115, (2R,3S)-4-[(R)-6-(2-Chloro-3-fluoro-phenyl)-5-methoxycarbonyl-2-thiazol-2-yl-3,6-dihydro-pyrimidin-4-ylmethyl]-2-methyl-morpholine-3-carboxylic acid], in the data set with HBV [1], the EC50 worked out at 2.3 nM. Besides, the thermodynamic solubility in data set [2] is greater than 642 µg/mL. In data set [3], the “Human Hepatic Clearance” value amounted to 1.55 mL/min/kg. The “Selectivity index (CC50/EC50)” value with HBV [4] is reported as greater than 43478. Further, the CC50 at 5 days in data set [5] was greater than 100000 nM.

Take `CCOC(=O)C1=C(CN2CCOC[C@H]2C(=O)O)NC(c2nccn2C)=N[C@H]1c1ccc(F)c(F)c1` [Example 57, (S)-4-[(S)-6-(3,4-Difluoro-phenyl)-5-ethoxycarbonyl-2-(1-methyl-1H-imidazol-2-yl)-3,6-dihydro-pyrimidin-4-ylmethyl]-morpholine-3-carboxylic acid]: the EC50 in the data set on HBV [1] was 15 nM. For the same compound, the solubility (thermodynamic) in data set [2] is greater than 613 µg/mL. Also, the “Human Hepatic Clearance” value in data set [3] was 0 mL/min/kg. Further, the “Selectivity index (CC50/EC50)” value in the data set on HBV [4] is reported as 2384. Further, the CC50 at 5 days in data set [5] was 35000 nM.

For the compound `COC(=O)C1=C(CN2CC(F)(F)C[C@H]2C(=O)O)NC(c2nccs2)=N[C@H]1c1ccc(F)c(F)c1Cl` [Example 74, (R)-6-((S)-2-Carboxy-4,4-difluoro-pyrrolidin-1-ylmethyl)-4-(2-chloro-3,4-difluoro-phenyl)-2-thiazol-2-yl-1,4-dihydro-pyrimidine-5-carboxylic acid methyl ester], in the data set on HBV [1], the EC50 came to 2.1 nM. This compound yielded a thermodynamic solubility in data set [2] greater than 655 µg/mL. Further, in data set [3], the “Human Hepatic Clearance” value came to 0.51 mL/min/kg. In the data set with HBV [4], the “Selectivity index (CC50/EC50)” value is on record as 34286. Also, the CC50 at 5 days in data set [5] amounted to 72000 nM.

As for `COC(=O)C1=C(CN2CCO[C@H](C)[C@H]2C(=O)O)NC(c2nccs2)=N[C@H]1c1ccc(F)cc1Br` [Example 106, (2R,3S)-4-[(R)-6-(2-Bromo-4-fluoro-phenyl)-5-methoxycarbonyl-2-thiazol-2-yl-3,6-dihydro-pyrimidin-4-ylmethyl]-2-methyl-morpholine-3-carboxylic acid], the EC50 in the data set on HBV [1] worked out at 2.1 nM. Further, the solubility (thermodynamic) in data set [2] is greater than 730 µg/mL. For the same compound, the “Human Hepatic Clearance” value in data set [3] turned out to be 6.32 mL/min/kg. The “Selectivity index (CC50/EC50)” value in the data set on HBV [4] is on record as greater than 47619. Also, the CC50 at 5 days in data set [5] is greater than 100000 nM.

On to `CCOC(=O)C1=C(CN2CC(F)(F)C[C@H]2C(=O)O)NC(c2nccs2)=N[C@H]1c1ccc(F)c(F)c1` [Example 41, (S)-6-((S)-2-Carboxy-4,4-difluoro-pyrrolidin-1-ylmethyl)-4-(3,4-difluoro-phenyl)-2-thiazol-2-yl-1,4-dihydro-pyrimidine-5-carboxylic acid ethyl ester], for which the EC50 with HBV [1] stood at 17 nM. In data set [2], this compound showed a solubility (thermodynamic) greater than 630 µg/mL. Further, the “Human Hepatic Clearance” value in data set [3] amounted to 6.83 mL/min/kg. The “Selectivity index (CC50/EC50)” value with HBV [4] was 2372. Also, the CC50 at 5 days in data set [5] was 40000 nM.

As for `CCOC(=O)C1=C(CN2CCOC[C@H]2C(=O)O)NC(c2nccn2C)=N[C@H]1c1ccc(F)cc1Cl` [Example 35, (S)-4-[(R)-6-(2-Chloro-4-fluoro-phenyl)-5-ethoxycarbonyl-2-(1-methyl-1H-imidazol-2-yl)-3,6-dihydro-pyrimidin-4-ylmethyl]-morpholine-3-carboxylic acid], the EC50 in the data set with HBV [1] came to 7.7 nM. The same compound returned a solubility (thermodynamic) in data set [2] greater than 599 µg/mL. Besides, the “Human Hepatic Clearance” value in data set [3] turned out to be 8.86 mL/min/kg. The “Selectivity index (CC50/EC50)” value in the data set with HBV [4] is given as 12987. In data set [5], the CC50 at 5 days was greater than 100000 nM.

`CCOC(=O)C1=C(CN2CC(F)(F)C[C@H]2C(=O)O)NC(c2nccs2)=N[C@H]1c1cccc(F)c1F` [Example 50, (R)-6-((S)-2-Carboxy-4,4-difluoro-pyrrolidin-1-ylmethyl)-4-(2,3-difluoro-phenyl)-2-thiazol-2-yl-1,4-dihydro-pyrimidine-5-carboxylic acid ethyl ester]: the EC50 with HBV [1] is 14 nM. The thermodynamic solubility in data set [2] was greater than 580 µg/mL. Besides, the “Human Hepatic Clearance” value in data set [3] came to 0 mL/min/kg. The “Selectivity index (CC50/EC50)” value in the data set on HBV [4] worked out at 1905. In data set [5], the CC50 at 5 days worked out at 26000 nM.

As for `CCOC(=O)C1=C(CN2CCOC[C@H]2C(=O)O)NC(c2nccs2)=N[C@H]1c1cc(F)c(F)c(F)c1` [Example 43, (S)-4-[(S)-5-Ethoxycarbonyl-2-thiazol-2-yl-6-(3,4,5-trifluoro-phenyl)-3,6-dihydro-pyrimidin-4-ylmethyl]-morpholine-3-carboxylic acid], the EC50 in the data set with HBV [1] is 18 nM. In data set [2], the thermodynamic solubility was greater than 606 µg/mL. The “Human Hepatic Clearance” value in data set [3] is recorded as 1.2 mL/min/kg. Further, the “Selectivity index (CC50/EC50)” value in the data set with HBV [4] was greater than 5556. In addition, the CC50 at 5 days in data set [5] was greater than 100000 nM.

Turning to `CCOC(=O)C1=C(CN2CC(F)(F)C[C@H]2C(=O)O)NC(c2nccs2)=N[C@H]1c1ccc(F)cc1Cl` [Example 34, (R)-6-((S)-2-Carboxy-4,4-difluoro-pyrrolidin-1-ylmethyl)-4-(2-chloro-4-fluoro-phenyl)-2-thiazol-2-yl-1,4-dihydro-pyrimidine-5-carboxylic acid ethyl ester], the EC50 with HBV [1] was found to be 10 nM. Besides, the solubility (thermodynamic) in data set [2] worked out at 531 µg/mL (≈ 1000 µM). Also, in data set [3], the “Human Hepatic Clearance” value came out at 7.46 mL/min/kg. Further, the “Selectivity index (CC50/EC50)” value with HBV [4] is listed as greater than 10000. The CC50 at 5 days in data set [5] is greater than 100000 nM.

(Values after patent US9447086B2, “6-amino acid heteroaryldihydropyrimidines for the treatment and prophylaxis of hepatitis B virus infection” (priority 2012, dated 2016).)
